Assay results as given in publication PMC6410202, “Dual Action of the PN159/KLAL/MAP Peptide: Increase of Drug Penetration across Caco-2 Intestinal Barrier Model by Modulation of Tight Junctions and Plasma Membrane Permeability” (Pharmaceutics, 2019).

Key:
[1] = tested on: Caco-2 epithelial cells; test: MTT assay, Caco-2 cell viability; assay type: cell-based, human; conditions: 1-h treatment
Experimental: The human Caco-2 intestinal epithelial cell line was purchased from ATCC (cat.no. HTB-37). Caco-2 cells were grown in DMEM/HAM’s F-12 culture medium with stable glutamine (Life Technologies, Gibco, Carlsbad, CA, USA) supplemented with 10% fetal bovine serum (Life Technologies, Gibco, Carlsbad, CA, USA and 50 μg/mL gentamycin in a humidified incubator with 5% CO2 at 37 °C. All plastic surfaces were coated with 0.05% rat tail collagen in sterile distilled water before cell seeding.
The PN159 peptide stock solution (5 mM) was prepared freshly in sterile DMSO. Treatment solutions were further diluted in Ringer-Hepes (150 mM NaCl, 6 mM NaHCO3, 5.2 mM KCl, 2.2 mM CaCl2, 0.2 mM MgCl2, 2.8 mM D-glucose, 5 mM Hepes; pH 7.4) or cell culture medium. Final concentrations of the peptide in treatment solutions were as follows: 1, 3, 10, 30 and 100 µM for cell viability assays; 1, 3, 10 and 30 µM for the barrier integrity assays and 10 µM for the recovery measurements.
For the cell viability assays Caco-2 epithelial cells were seeded to 96-well plates at the density of 6 × 10^3 cells/well (Orange Scientific) and cultured for 3-5 days. Confluent cultures were treated with PN159 peptide (1, 3, 10, 30 and 100 μM) in phenol red free DMEM (Life Technologies, Gibco, Carlsbad, CA, USA) for 1-h. This viability assay was performed at three different time points: (i) immediately after the 1-h treatment, (ii) at one-day recovery, (iii) at one-week recovery. To determine 100% toxicity, cells were incubated with 1 mg/mL Triton X-100 detergent. After treatment the medium was changed and 0.5 mg/mL MTT (3-(4,5-dimethyltiazol-2-yl)-2,5-diphenyltetrazolium bromide) solution was added to the cells for 3 h. During the incubation cells were kept in a CO2 incubator. The metabolic activity of cells is reflected by the conversion of the yellow MTT dye to purple formazan. Formazan crystals were dissolved in DMSO and the amount of converted dye was determined by measuring absorbance at 595 nm wavelength with a microplate reader (Fluostar Optima, BMG Labtechnologies, Ortenberg, Germany). Cell viability and/or metabolic activity was calculated as percentage of dye conversion by non-treated cells.

[2] = Circular dichroism spectroscopy of the peptide; assay type: physicochemical; conditions: CD
Experimental: Far-UV circular dichroism (CD) spectra of the peptides were recorded at 25°C temperature on a J-810 spectropolarimeter (JASCO International Co. Ltd., Tokyo, Japan). The CD spectra were measured between 260 nm and 185 nm with an optical pathlength of 1 mm, at a peptide concentration of 0.1 mg/mL in Milli-Q water diluted directly from powder. The bandwidth was 2 nm and data pitch 0.5 nm, the scan speed was set to 100 nm/min and the integration time was 1 sec. Ten spectra were accumulated and plotted. The data were analyzed by CDSSTR method. To test the thermostability of the peptide structure the CD spectra were recorded between 25 °C and 55 °C temperature with a ramp rate of 5 °C/min on a JASCO J-810 spectropolarimeter by using a Peltier sample holder. The CD spectra were measured immediately between 260 and 185 nm with an optical pathlength of 1 mm, the peptide concentration was 0.1 mg/mL in Milli-Q water. The bandwidth was 2 nm and data pitch 1 nm, the scan speed was set to 100 nm/min, and the integration time was 1 sec. Five spectra were accumulated and plotted.

[3] = tested on: Caco-2 epithelial cells; test: Ethidium homodimer-1 staining, cell membrane integrity; assay type: cell-based, human; conditions: PN159 1 to 10 μM, 24-h treatments
Experimental: Besides the junctional effects, changes in the cell membrane integrity were also examined by ethidium homodimer-1 (856.77 Da) staining of Caco-2 epithelial cells after 24-h treatments in the concentration range of 1 to 10 μM.
Figure 7 (A) Fluorescent staining of juntional protein zonula occludens-1 and double staining of cell nuclei in Caco-2 cells after 1-h treatment with PN159 peptide. Green color: immunostaining for ZO-1. Red color: staining by ethidium homodimer-1 (EH-1), indicating increased membrane permeability.Blue color: staining of all cell nuclei by H33342. Bar = 10 µm. (B) Confocal microscopy images of living Caco-2 epithelial cells incubated with Bodipy FL labeled PN159 peptide in different concentrations for 5 min at 37°C. Green color: BodipyFL-PN159 peptide. Blue color: staining of cell nuclei. Bar = 10 µm.

[4] = tested on: Enterobacter cloacae spp. cloacae (ATCC 13047); test: microbe, parasite or virus in culture; conditions: Muller–Hinton broth, 18 h
Experimental: (§1) The MIC of PN159 on the 6 sensitive and resistant ESKAPE pathogenic strains was determined in cation-adjusted Muller–Hinton broth. […] Minimum inhibitory concentrations (MICs) were determined by using a standard serial broth dilution technique. Briefly, 11-step serial dilutions were prepared in 96-well microtiter plates with three biological replicates per strain. Pathogens were inoculated into each well at a density of 5×10^5 bacteria/mL, and the plates were incubated at 37 °C. Plates were shaken at 300 rpm during incubation for 18 h. Cell growth was monitored by measuring the optical density (OD600 value, Synergy 2 microplate reader BioTek Instruments Inc, Winooski, VT, USA). […] As reference compounds we tested the antimicrobial activity of three bactericidal drugs with different modes of action.

[5] = tested on: Pseudomonas aeruginosa (ATCC 27853); test: microbe, parasite or virus in culture; conditions: Muller–Hinton broth, 18 h
Experimental: as §1

[6] = tested on: respiratory epithelial tissue (EpiAirway model); set-up: method as in PMID 16625659; conditions: 1-h treatment; cited from earlier work
[7] = tested on: claudin-1; set-up: method as in PMID 26869428; conditions: affinity measurements; cited from earlier work
[8] = tested on: claudin-5; set-up: method as in PMID 26869428; conditions: affinity measurements; cited from earlier work

Which “Non-toxic concentration (MTT and impedance)” value ([1]; Caco-2) does the source give for `CC(C)C[C@H](NC(=O)[C@H](C)NC(=O)[C@H](CCCCN)NC(=O)[C@H](CC(C)C)NC(=O)[C@H](C)NC(=O)[C@H](CC(C)C)NC(=O)[C@H](CCCCN)NC(=O)[C@H](CC(C)C)NC(=O)[C@H](C)NC(=O)[C@H](CC(C)C)NC(=O)[C@@H](N)CCCCN)C(=O)N[C@@H](CCCCN)C(=O)N[C@@H](C)C(=O)N[C@@H](C)C(=O)N[C@@H](CC(C)C)C(=O)N[C@@H](CCCCN)C(=O)N[C@@H](CC(C)C)C(=O)N[C@@H](C)C(N)=O` [PN159] here?
The value was no more than 10 µM.

And the “Toxicity (MTT and impedance)” value ([1]; PN159 30 μM)?
Its value is “reversible”.

And the “Toxicity (MTT and impedance)” value ([1]; PN159 100 μM)?
The value was “toxic”.

And the “Reversibility of cytotoxic effect (MTT)” value ([1]; PN159 100 μM, 1-day or 1-week recovery)?
Its value is “not reversible after one day or even one week”.

And the “Cell viability (MTT)” value ([1]; PN159 1–10 μM, Caco-2)?
Its value is “did not decrease cell viability”.

And the “Cell viability (MTT)” value ([1]; PN159 30 and 100 μM, Caco-2)?
Its value is “cell damage”.

And the “Secondary structure, turns” value ([2]; 25 °C, 0.1 mg/mL in water)?
Its value is 24%.

What about the “Secondary structure, unordered structure” value ([2]; 25 °C, 0.1 mg/mL in water) of the same molecule?
The value was 34%.

And the “Secondary structure, α-helix” value ([2]; 25 °C, 0.1 mg/mL in water)?
The value was 11%.

And the “Secondary structure, β-sheet” value ([2]; 25 °C, 0.1 mg/mL in water)?
Its value is 31%.

What about the “Thermostability of secondary structure” value ([2]; between 25 and 55 °C) of the same molecule?
The value was “stable”.

What about the “Plasma membrane entry of ethidium homodimer-1” value [3] of the same molecule?
The value was “Only the highest PN159 concentration caused plasma membrane entry of the red fluorescent dye”.

What about the MIC [4] of the same molecule?
The MIC was 31.0 µM.

What about the MIC [5] of the same molecule?
The MIC was 46.4 µM.

And the “Safe concentration (MTT)” value [6]?
Its value is “up to 100 μM”.

What about the Binding [7] of the same molecule?
Its Binding is “in the micromolar range”.

What about the Binding [8] of the same molecule?
The Binding was “in the micromolar range”.
